This is an account of results in US5132111A (priority 1990, dated 1992).

Non-standard residues stand in square brackets, D forms with d. Residues, ends and D or L forms follow the SMILES beside them. Nle = CCCC[C@H](N)C(=O)O

For one experiment, the system named is CRF Target Cells (anterior pituitary cells). In kind it is cell-based, rat.
Take “H-Ser-Gln-Glu-Pro-Pro-Ile-Ser-Leu-Asp-Leu-Thr-Phe-His -Leu-Leu-Arg-Glu-Val-Leu-Glu-Met-Thr-Lys-Ala-Asp-Gln -Leu-Ala-Gln-Gln-Ala-His-Ser-Asn-Arg-Lys-Leu-Leu-Asp-Ile-Ala-NH2 [CRF]”: the “ACTH secretion in response to CRF 3 days following pretreatment” value was found to be 3.7 times the basal rate, the “ACTH-secretory response to subsequent CRF after pretreatment” value is reported as “does not eliminate the ability of the cells to respond” and the “decrease of ACTH content” value amounted to 40%.

The subject of another experiment is secretion of ACTH and β-END-LI.
`CCCC[C@H](NC(=O)[C@H](CCC(=O)O)NC(=O)[C@H](CC(C)C)NC(=O)[C@H](CCCC)NC(=O)[C@H](CCC(=O)O)NC(=O)[C@H](CCCNC(=N)N)NC(=O)[C@H](CC(C)C)NC(=O)[C@H](CC(C)C)NC(=O)[C@H](Cc1c[nH]cn1)NC(=O)[C@H](Cc1ccccc1)NC(=O)[C@@H](NC(=O)[C@H](CC(C)C)NC(=O)[C@@H](N)CC(=O)O)[C@@H](C)O)C(=O)N[C@@H](C)C(=O)N[C@@H](CCCNC(=N)N)C(=O)N[C@@H](C)C(=O)N[C@@H](CCC(=O)O)C(=O)N[C@@H](CCC(N)=O)C(=O)N[C@@H](CCC(=O)O)C(=O)N[C@@H](C)C(=O)N[C@@H](CCC(=O)O)C(=O)N[C@@H](CCC(N)=O)C(=O)N[C@@H](C)C(=O)N[C@@H](C)C(=O)N[C@@H](CC(C)C)C(=O)N[C@@H](CC(N)=O)C(=O)N[C@@H](CCCNC(=N)N)C(=O)N[C@@H](CC(C)C)C(=O)N[C@@H](CC(C)C)C(=O)N[C@@H](CC(C)C)C(=O)N[C@@H](CCC(=O)O)C(=O)N[C@@H](CCC(=O)O)C(=O)N[C@@H](C)C(N)=O` [[Nle^18,21]-AAHC(9-41)] (H-DLTFHLLRE[Nle]LE[Nle]ARAEQEAEQAALNRLLLEEA-NH2): the “secretion of ACTH (inhibition)” value is reported as “inhibits” and the “secretion of β-END-LI (inhibition)” value was “inhibits”.
In the case of `CCCC[C@H](NC(=O)[C@H](CCC(=O)O)NC(=O)[C@H](CC(C)C)NC(=O)[C@H](CCCC)NC(=O)[C@H](CCC(=O)O)NC(=O)[C@H](CCCNC(=N)N)NC(=O)[C@H](CC(C)C)NC(=O)[C@H](CC(C)C)NC(=O)[C@H](Cc1c[nH]cn1)NC(=O)[C@H](Cc1ccccc1)NC(=O)[C@@H](NC(=O)[C@@H](N)CC(C)C)[C@@H](C)O)C(=O)N[C@@H](C)C(=O)N[C@@H](CCCNC(=N)N)C(=O)N[C@@H](C)C(=O)N[C@@H](CCC(=O)O)C(=O)N[C@@H](CCC(N)=O)C(=O)N[C@@H](CCC(=O)O)C(=O)N[C@@H](C)C(=O)N[C@@H](CCC(=O)O)C(=O)N[C@@H](CCC(N)=O)C(=O)N[C@@H](C)C(=O)N[C@@H](C)C(=O)N[C@@H](CC(C)C)C(=O)N[C@@H](CC(N)=O)C(=O)N[C@@H](CCCNC(=N)N)C(=O)N[C@@H](CC(C)C)C(=O)N[C@@H](CC(C)C)C(=O)N[C@@H](CC(C)C)C(=O)N[C@@H](CCC(=O)O)C(=O)N[C@@H](CCC(=O)O)C(=O)N[C@@H](C)C(N)=O` [[Nle^18,21]-AAHC(10-41)] (H-LTFHLLRE[Nle]LE[Nle]ARAEQEAEQAALNRLLLEEA-NH2), the “secretion of ACTH (inhibition)” value was “inhibits” and the “secretion of β-END-LI (inhibition)” value is reported as “inhibits”.
On to “H-Asp-CML-Thr-Leu-Glu -CML-CML-Arg-Glu-Met-CML-Glu-Met-CMA-Arg-Ala-Glu-Gln-CML -Ala-Glu-Gln-Ala-CMA-CML-Asn-Arg-Leu-CML-Leu-Glu-Glu-CMA-NH2”, for which the “secretion of ACTH (inhibition)” value is “inhibits” and the “secretion of β-END-LI (inhibition)” value is “inhibits”.
“H-DLTFELLREVLEVARAEQLAQQAHSNRRLMEII-NH2 [[Glu^13, Val^21, Arg^36]-rCRF (9-41)]”: the “secretion of ACTH (inhibition)” value was “inhibits” and the “secretion of β-END-LI (inhibition)” value is “inhibits”.
Take “H-DLTFHLLREMLEMARAEQEAEQAALNRLLLEEA-NH2 [AAHC(9-41)]”: the “secretion of ACTH (inhibition)” value is reported as “inhibits”.
On to “H-DLTFHLLREVAEMTRAEQLAQQAHSNRRLMEII-NH2 [[Ala^19, Thr^22, Arg^36]-hCRF (9-41)]”, for which the “secretion of ACTH (inhibition)” value was “inhibits” and the “secretion of β-END-LI (inhibition)” value is listed as “inhibits”.
With “H-DLTFHLLREVLEMARAEQLAQQAHSNRRLMEII-NH2 [[Arg^36]-rCRF (9-41)]”, the “secretion of ACTH (inhibition)” value is reported as “inhibits”.
In the case of “H-IDLTFHLLRNMIEMARNENQREQAGLNRRYLDEV-NH2 [[Arg^36]-Carp Urotensin I(8-41)]”, the “secretion of ACTH (inhibition)” value is “inhibits” and the “secretion of β-END-LI (inhibition)” value is “inhibits”.
Take “H-LDLTFHLLREVLEMARAEQLAQQAHSNRRLMEII-NH2 [[Arg^36]-rCRF(8-41)]”: the “secretion of ACTH (inhibition)” value is on record as “inhibits” and the “secretion of β-END-LI (inhibition)” value was “inhibits”.
As for “H-LTFHLLREVLEMARAEQLAQQAHSNRRLMEII-NH2 [[Arg^36]-rCRF(10-41)]”, the “secretion of ACTH (inhibition)” value is listed as “inhibits” and the “secretion of β-END-LI (inhibition)” value is listed as “inhibits”.

A further experiment relates to gonadotropes (anterior pituitary cells). In kind it is cell-based, rat.
“H-Ser-Gln-Glu-Pro-Pro-Ile-Ser-Leu-Asp-Leu-Thr-Phe-His -Leu-Leu-Arg-Glu-Val-Leu-Glu-Met-Thr-Lys-Ala-Asp-Gln -Leu-Ala-Gln-Gln-Ala-His-Ser-Asn-Arg-Lys-Leu-Leu-Asp-Ile-Ala-NH2 [CRF]”: the “LH-secretory response to GnRH after pretreatment” value is “no effect” and the “effect on LH content” value is on record as “neither CRF nor the cytotoxic conjugate has any significant effect on LH content”.
